Structures can show the parent of a compound that is named as a salt.
Molecular target: purified human Factor XIa (Homo sapiens (Human), UniProt P03951)
Assay: Factor XIa assay (chromogenic substrate hydrolysis, Ki)
Format: biochemical
Settings: synthetic substrate S-2366, 50 mM HEPES pH 7.4
Method: The effectiveness of compounds of the present invention as inhibitors of the coagulation factors XIa, VIIa, IXa, Xa, XIIa, plasma kallikrein or thrombin, can be determined using a relevant purified serine protease, respectively, and an appropriate synthetic substrate. The rate of hydrolysis of the chromogenic or fluorogenic substrate by the relevant serine protease was measured both in the absence and presence of compounds of the present invention. […] A decrease in the rate of absorbance or fluorescence change in the presence of inhibitor is indicative of enzyme inhibition. Such methods are known to one skilled in the art. The results of this assay are expressed as the inhibitory constant, Ki.
Values of Ki were determined by allowing the protease to react with the substrate in the presence of the inhibitor. Reactions were allowed to go for periods of 20-180 minutes (depending on the protease) and the velocities (rate of absorbance or fluorescence change versus time) were measured. The following relationships were used to calculate Ki values: (vo−vs)/vs=I/(Ki(1+S/Km)) for a competitive inhibitor with one binding site; or vs/vo=A+((B−A)/1+((IC50/(I)n))); and Ki=IC50/(1+S/Km) for a competitive inhibitor where: […]

Chain of purified human Factor XIa (P03951 388-625): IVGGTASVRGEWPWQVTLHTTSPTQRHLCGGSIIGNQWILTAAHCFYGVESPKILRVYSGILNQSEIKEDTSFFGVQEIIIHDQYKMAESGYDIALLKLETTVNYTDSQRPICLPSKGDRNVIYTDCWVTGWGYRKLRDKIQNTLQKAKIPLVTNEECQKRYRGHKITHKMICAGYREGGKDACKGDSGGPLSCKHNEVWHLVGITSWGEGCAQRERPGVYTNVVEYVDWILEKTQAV
Chain of purified human Factor XIa (P03951 19-387 partner): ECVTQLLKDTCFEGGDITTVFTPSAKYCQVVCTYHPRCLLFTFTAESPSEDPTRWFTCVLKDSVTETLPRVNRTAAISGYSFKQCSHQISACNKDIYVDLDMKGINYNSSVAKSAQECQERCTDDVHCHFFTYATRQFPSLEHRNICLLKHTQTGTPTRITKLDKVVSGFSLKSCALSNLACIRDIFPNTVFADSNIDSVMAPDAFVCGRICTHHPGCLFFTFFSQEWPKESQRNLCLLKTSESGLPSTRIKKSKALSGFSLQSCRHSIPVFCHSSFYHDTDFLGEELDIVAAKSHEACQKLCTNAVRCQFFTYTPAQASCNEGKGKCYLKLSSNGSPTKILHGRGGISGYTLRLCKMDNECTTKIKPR

Ki | Compound
5.02 nM | Cc1[nH]nc2c1C(C(=O)Nc1ccc(C(=O)O)cc1)N(C(=O)/C=C/c1c(-n3cnnn3)ccc(Cl)c1F)CC2 (centres unmarked) [Example 77, (E)-4-(5-(3-(3-chloro-2-fluoro-6-(1H-tetrazol-1-yl)phenyl)acryloyl)-3-methyl-4,5,6,7-tetrahydro-2H-pyrazolo[4,3-c]pyridine-4-carboxamido)benzoic acid, TFA salt]
23.3 nM | CCc1nn(C)c2c1C(C(=O)Nc1ccc(C(=O)O)cc1)N(C(=O)/C=C/c1cc(Cl)ccc1-n1cnnn1)CC2 (centres unmarked) [Example 65, (E)-4-(5-(3-(5-Chloro-2-(1H-tetrazol-1-yl)phenyl)acryloyl)-3-ethyl-1-methyl-4,5,6,7-tetrahydro-1H-pyrazolo[4,3-c]pyridine-4-carboxamido)benzoic acid, TFA salt]
172 nM | CC1(C)CN(C(=O)/C=C/c2cc(Cl)ccc2-n2cnnn2)C(C(=O)Nc2ccc(C(=O)O)cc2)c2c(Br)cccc21 (centres unmarked) [Example 55, (E)-4-(8-bromo-2-(3-(5-chloro-2-(1H-tetrazol-1-yl)phenyl)acryloyl)-4,4-dimethyl-1,2,3,4-tetrahydroisoquinoline-1-carboxamido)benzoic acid]

Continued, molecule first:

Compound | Ki
Cc1[nH]nc2c1C(C(=O)Nc1ccc(C(=O)OC(C)(C)C)cc1)N(C(=O)/C=C/c1c(-n3cnnn3)ccc(Cl)c1F)CC2 (centres unmarked) [Example 76, (E)-tert-butyl 4-(5-(3-(3-chloro-2-fluoro-6-(1H-tetrazol-1-yl)phenyl)acryloyl)-3-methyl-4,5,6,7-tetrahydro-2H-pyrazolo[4,3-c]pyridine-4-carboxamido)benzoate, TFA salt] | 566 nM
O=C(O)c1ccc(NC(=O)[C@@H]2c3ccccc3CCN2C(=O)C#Cc2cc(Cl)ccc2-n2cnnn2)cc1 [Example 48, (S)-4-(2-(3-(5-Chloro-2-(1H-tetrazol-1-yl)phenyl)propioloyl)-1,2,3,4-tetrahydroisoquinoline-1-carboxamido)benzoic acid] | 7.08 nM
NC(=O)c1ccc(-c2nccc3c2CCN(C(=O)/C=C/c2c(-n4cnnn4)ccc(Cl)c2F)C3C(=O)Nc2ccc3cn[nH]c3c2)cc1 (centres unmarked) [Example 23, (E)-5-(4-Carbamoylphenyl)-2-(3-(3-chloro-2-fluoro-6-(1H-tetrazol-1-yl)phenyl)acryloyl)-N-(1H-indazol-6-yl)-1,2,3,4-tetrahydro-2,6-naphthyridine-1-carboxamide, TFA salt] | < 5 nM
O=C(O)c1ccc(NC(=O)C2c3ccnc(N4CCOCC4)c3CCN2C(=O)/C=C/c2c(-n3cnnn3)ccc(Cl)c2F)cc1 (centres unmarked) [Example 28, (E)-4-(2-(3-(3-Chloro-2-fluoro-6-(1H-tetrazol-1-yl)phenyl)acryloyl)-5-morpholino-1,2,3,4-tetrahydro-2,6-naphthyridine-1-carboxamido)benzoic acid, TFA Salt] | < 5 nM
O=C(Nc1ccc(C2CCCN2)cc1)[C@@H]1c2ccccc2CCN1C(=O)/C=C/c1cc(Cl)ccc1-n1cnnn1 (stereo partly drawn) [Example 40, (1S)-2-((E)-3-(5-Chloro-2-(1H-tetrazol-1-yl)phenyl)acryloyl)-N-(4-(pyrrolidin-2-yl)phenyl)-1,2,3,4-tetrahydroisoquinoline-1-carboxamide, TFA salt] | 6730 nM
